Tests used:
Format in all cases: in vivo
[1] = test system: Veronica persica; assay: Post-emergence herbicidal effect against VERPE; conditions: 1280 g/ha, visual assessment about 3 weeks after treatment, 100% = plants have died, 0% = like control plants
Description: (§1) [table] 2. Post-emergence herbicidal effect and crop plant compatibility Seeds of monocotyledonous and dicotyledonous weed and crop plants are laid out in sandy loam soil in wood-fibre pots, covered with soil and cultivated in a greenhouse under good growth conditions. 2 to 3 weeks after sowing, the test plants are treated at the one-leaf stage. The compounds of the invention, formulated in the form of wettable powders (WP) or as emulsion concentrates (EC), are then sprayed onto the green parts of the plants as aqueous suspension or emulsion at a water application rate equating to 600 to 800 l/ha with addition of 0.2% wetting agent. After the test plants have been left to stand in the greenhouse under optimal growth conditions for about 3 weeks, the action of the preparations is assessed visually in comparison to untreated controls (herbicidal action in percent (%): 100% activity=the plants have died, 0% activity=like control plants).

[2] = test system: Lolium rigidum; assay: Pre-emergence herbicidal effect against LOLRI; conditions: 1280 g/ha, visual score after 3 weeks, 100% = plants have died, 0% = like control plants
Description: (§2) 1. Pre-emergence herbicidal effect and crop plant compatibility Seeds of monocotyledonous and dicotyledonous weed plants and crop plants are laid out in sandy loam soil in wood-fibre pots and covered with soil. The compounds of the invention, formulated in the form of wettable powders (WP) or as emulsion concentrates (EC), are then applied to the surface of the covering soil as aqueous suspension or emulsion at a water application rate equating to 600 to 800 L/ha with addition of 0.2% wetting agent. After the treatment, the pots are placed in a greenhouse and kept under good growth conditions for the trial plants. The damage to the test plants is scored visually after a test period of 3 weeks by comparison with untreated controls (herbicidal activity in percent (%): 100% activity=the plants have died, 0% activity=like control plants). [table]

[3] = test system: Digitaria sanguinalis; assay: Post-emergence herbicidal effect against DIGSA; conditions: 1280 g/ha, visual score after about 3 weeks, 100% = plants have died, 0% = like control plants
Description: as §1

[4] = test system: Alopecurus myosuroides; assay: Post-emergence herbicidal effect against ALOMY; conditions: 1280 g/ha, visual score after about 3 weeks, 100% = plants have died, 0% = like control plants
Description: as §1

[5] = test system: Veronica persica; assay: Pre-emergence herbicidal effect against VERPE; conditions: 1280 g/ha, visual score after 3 weeks, 100% = plants have died, 0% = like control plants
Description: as §2

[6] = test system: Poa annua; assay: Pre-emergence herbicidal effect against POAAN; conditions: 1280 g/ha, visual score after 3 weeks, 100% = plants have died, 0% = like control plants
Description: as §2

[7] = test system: Stellaria media; assay: Pre-emergence herbicidal effect against STEME; conditions: 1280 g/ha, visual score after 3 weeks, 100% = plants have died, 0% = like control plants
Description: as §2

[8] = test system: Tripleurospermum inodorum; assay: Post-emergence herbicidal effect against MATIN; conditions: 1280 g/ha, visual assessment about 3 weeks after treatment, 100% = plants have died, 0% = like control plants
Description: as §1

[9] = test system: Alopecurus myosuroides; assay: Pre-emergence herbicidal effect against ALOMY; conditions: 1280 g/ha, visual score after 3 weeks, 100% = plants have died, 0% = like control plants
Description: as §2

[10] = test system: Tripleurospermum inodorum; assay: Pre-emergence herbicidal effect against MATIN; conditions: 1280 g/ha, visual score after 3 weeks, 100% = plants have died, 0% = like control plants
Description: as §2

[11] = test system: Amaranthus retroflexus; assay: Pre-emergence herbicidal effect against AMARE; conditions: 1280 g/ha, visual score after 3 weeks, 100% = plants have died, 0% = like control plants
Description: as §2

[12] = test system: Amaranthus retroflexus; assay: Post-emergence herbicidal effect against AMARE; conditions: 1280 g/ha, visual assessment about 3 weeks after treatment, 100% = plants have died, 0% = like control plants
Description: as §1

[13] = test system: Stellaria media; assay: Post-emergence herbicidal effect against STEME; conditions: 1280 g/ha, visual assessment about 3 weeks after treatment, 100% = plants have died, 0% = like control plants
Description: as §1

[14] = test system: Setaria viridis; assay: Pre-emergence herbicidal effect against SETVI; conditions: 1280 g/ha, visual score after 3 weeks, 100% = plants have died, 0% = like control plants
Description: as §2

[15] = test system: Setaria viridis; assay: Post-emergence herbicidal effect against SETVI; conditions: 1280 g/ha, visual assessment about 3 weeks after treatment, 100% = plants have died, 0% = like control plants
Description: as §1

[16] = test system: Abutylon threophrasti; assay: Post-emergence herbicidal effect against ABUTH; conditions: 1280 g/ha, visual assessment about 3 weeks after treatment, 100% = plants have died, 0% = like control plants
Description: as §1

[17] = test system: Digitaria sanguinalis; assay: Pre-emergence herbicidal effect against DIGSA; conditions: 1280 g/ha, visual score after 3 weeks, 100% = plants have died, 0% = like control plants
Description: as §2

[18] = test system: Poa annua; assay: Post-emergence herbicidal effect against POAAN; conditions: 1280 g/ha, visual assessment about 3 weeks after treatment, 100% = plants have died, 0% = like control plants
Description: as §1

[19] = test system: Echinochloa crus-galli; assay: Pre-emergence herbicidal effect against ECHCG; conditions: 1280 g/ha, visual score after 3 weeks, 100% = plants have died, 0% = like control plants
Description: as §2

[20] = test system: Bassia scoparia; assay: Post-emergence herbicidal effect against KCHSC; conditions: 1280 g/ha, visual assessment about 3 weeks after treatment, 100% = plants have died, 0% = like control plants
Description: as §1

[21] = test system: Echinochloa crus-galli; assay: Post-emergence herbicidal effect against ECHCG; conditions: 1280 g/ha, visual score after about 3 weeks, 100% = plants have died, 0% = like control plants
Description: as §1

Structure (SMILES) | Post-emergence action against VERPE [1] [%] | Pre-emergence action against LOLRI [2] [%] | Post-emergence action against DIGSA [3] [%] | Post-emergence action against ALOMY [4] [%] | Pre-emergence action against VERPE [5] [%] | Pre-emergence action against POAAN [6] [%] | Pre-emergence action against STEME [7] [%] | Post-emergence action against MATIN [8] [%] | Pre-emergence action against ALOMY [9] [%] | Pre-emergence action against MATIN [10] [%] | Pre-emergence action against AMARE [11] [%] | Post-emergence action against AMARE [12] [%] | Post-emergence action against STEME [13] [%] | Pre-emergence action against SETVI [14] [%] | Post-emergence action against SETVI [15] [%] | Post-emergence action against ABUTH [16] [%] | Pre-emergence action against DIGSA [17] [%] | Post-emergence action against POAAN [18] [%] | Pre-emergence action against ECHCG [19] [%] | Post-emergence action against KCHSC [20] [%] | also measured
CCOC(=O)CSc1nn(-c2ccccc2F)c(-c2ccc(F)c(F)c2)c1Br [Example I-002, Ethyl {[4-bromo-5-(3,4-difluorophenyl)-1-(2-fluorophenyl)-1H-pyrazol-3-yl]sulfanyl}acetate] | 90 | 100 | 100 | 100 | 100 | 100 | 100 | 100 | 90 | 100 | 100 | 90 | 100 | 100 | 100 | 90 | 90 | – | – | – | –
O=C(O)CSc1nn(-c2ccccc2F)c(-c2ccc(F)c(F)c2)c1Br [Example I-005, {[4-Bromo-5-(3,4-difluorophenyl)-1-(2-fluorophenyl)-1H-pyrazol-3-yl]sulfanyl}acetic acid] | 90 | 100 | 100 | 100 | 100 | 100 | 100 | 100 | 90 | 100 | 100 | 90 | 100 | 100 | – | – | 100 | – | – | – | –
O=C(O)CSc1nn(-c2cccc(F)c2F)c(-c2ccccc2)c1Br [Example I-006] | 90 | 90 | 100 | 100 | 100 | 100 | 90 | 100 | 90 | 100 | 100 | 100 | 100 | 100 | – | – | 100 | 100 | 90 | 90 | –
O=C(O)CSc1nn(-c2ccccc2F)c(-c2cc(F)cc(Cl)c2)c1Br [Example I-009] | 90 | 100 | – | – | 90 | 100 | 100 | 100 | 90 | 100 | 100 | 100 | 100 | 100 | – | 90 | 100 | 100 | 90 | 100 | –
CCOC(=O)C[S+]([O-])c1nn(-c2cccc(F)c2F)c(-c2ccccc2)c1Br (centres unmarked) [Example I-010] | 90 | 100 | 90 | 100 | 100 | 100 | 100 | 100 | 100 | 100 | 100 | 90 | 90 | 100 | – | 90 | 100 | 100 | 100 | 90 | Post-emergence action against ECHCG [21]: 100%
CCOC(=O)CSc1nn(-c2ccccc2F)c(-c2ccc(F)c(F)c2)c1C#N [Example I-012] | 100 | 90 | 100 | 100 | 100 | 100 | 100 | 90 | – | 100 | 100 | 90 | 100 | 100 | 90 | – | 100 | 100 | 100 | 90 | Post-emergence action against ECHCG [21]: 100%
CCOC(=O)CSc1nn(-c2ccccc2F)c(-c2ccc(F)nc2)c1Br [II-001, Ethyl {[4-bromo-1-(2-fluorophenyl)-5-(6-fluoropyridin-3-yl)-1H-pyrazol-3-yl]sulfanyl}acetate] | 90 | 100 | 100 | 100 | 100 | 100 | 90 | 100 | 100 | 100 | 100 | 100 | 90 | 100 | 90 | 90 | 100 | 100 | 100 | – | Post-emergence action against ECHCG [21]: 100%
O=C(O)CSc1nn(-c2ccccc2F)c(-c2cncc(Cl)c2)c1Br [II-008] | 100 | 100 | 100 | 100 | 100 | 100 | 100 | 100 | 100 | 100 | 100 | 90 | 100 | 100 | 90 | 90 | 100 | 100 | 100 | – | Post-emergence action against ECHCG [21]: 100%

From patent US20230126893A1, “[(1,4,5-TRISUBSTITUTED-1H-PYRAZOL-3-YL)SULFANYL]ACETIC ACID DERIVATIVES, SALTS THEREOF, AND USE THEREOF AS ACTIVE HERBICIDAL INGREDIENTS” (BAYER AKTIENGESELLSCHAFT, priority 2020, published 2023)
